Measured values as given in paper PMC8857485, “Prostate secretory protein 94 inhibits sterol binding and export by the mammalian CAP protein CRISP2 in a calcium-sensitive manner” (The Journal of Biological Chemistry, 2022).
Counter-ions that a name gives are not always drawn.

What was measured:
Design in all cases: species or system mammalian
[1] = molecular target: T1, CRISP2^N97P L98G (Homo sapiens, UniProt P16562, L98G/N97P); assay: MST binding to CRISP2 double mutant N97P L98G; conditions: absence of PSP94, read-out: Kd, sterol binding by CRISP2^N97P L98G
T1 construct: made in house; host or cells: E. coli
T1 sequence (P16562 22-243 N97P/L98G): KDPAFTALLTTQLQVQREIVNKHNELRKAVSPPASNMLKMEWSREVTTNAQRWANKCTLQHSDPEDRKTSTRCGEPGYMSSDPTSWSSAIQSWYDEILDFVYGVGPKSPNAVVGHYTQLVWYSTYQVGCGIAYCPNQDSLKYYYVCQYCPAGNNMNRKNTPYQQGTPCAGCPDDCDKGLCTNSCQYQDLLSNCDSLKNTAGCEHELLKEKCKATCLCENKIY
Method: (§1) Next, we generated all three double mutant combinations of CRISP2: N97P L98G, N97P Y99P, and L98G Y99P. These three double mutant versions of CRISP2 were again expressed as His-tagged proteins in E. coli and purified, and their capacity to bind sterols in the presence or absence of PSP94 was assessed by MST. […] The capacity of the CRISP2^L98G Y99P double mutant to bind sterols even in the presence of PSP94 was confirmed by the in vivo sterol export assay (Fig. 6, A and B). When expressed in yeast cells, the CRISP2^L98G Y99P double mutant was stably expressed and secreted as monitored by Western blotting (Fig. 6C).
(§2) MST experiments were performed to assess protein–protein, protein–lipid, and protein–calcium interactions using a Monolith NT.115 (Nanotemper Technologies). Proteins were labeled using the RED-tris-NTA His tag protein labeling kit. Labeled CAP proteins, 100 nM, were mixed with a serial dilution of unlabeled PSP94, PSP9^F24G, cholesterol sulfate, or calcium chloride, prepared in binding buffer (20 mM Tris pH 7.5, 30 mM NaCl, 0.05% Triton X-100). Samples were loaded into MST standard capillaries, and MST measurements were performed using an 80% laser power setting. The dissociation constant Kd was obtained by plotting the normalized fluorescence (Fnorm) against the logarithm of ligand concentration. […]

[2] = molecular target: T2, CRISP2^N97P Y99P (Homo sapiens, UniProt P16562, N97P/Y99P); assay: MST binding to CRISP2 double mutant N97P Y99P; conditions: absence of PSP94, read-out: Kd, sterol binding by CRISP2^N97P Y99P
T2 construct: made in house; host or cells: E. coli
T2 sequence (P16562 22-243 N97P/Y99P): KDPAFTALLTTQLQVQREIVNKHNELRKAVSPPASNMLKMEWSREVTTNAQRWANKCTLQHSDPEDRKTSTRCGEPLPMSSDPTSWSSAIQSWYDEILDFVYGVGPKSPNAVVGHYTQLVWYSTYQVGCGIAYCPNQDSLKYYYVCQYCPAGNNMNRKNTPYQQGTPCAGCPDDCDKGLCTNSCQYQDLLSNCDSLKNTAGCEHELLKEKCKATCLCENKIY
Method: as §1, §2

[3] = molecular target: T3, CRISP2 N97P (Homo sapiens, UniProt P16562, N97P); assay: MST binding to CRISP2 single mutant N97P; conditions: absence of PSP94, read-out: Kd, sterol binding by CRISP2 N97P
T3 construct: made in house; host or cells: E. coli
T3 sequence (P16562 22-243 N97P): as the sequence (P16562 22-243 N97P/Y99P) above, with P78Y counted along it
Description: This interaction is thus located outside the hydrophobic loop that harbors the sterol-binding CBM. Based on these structural considerations, it is thus not apparent why and how the interaction between PSP94 and CRISP2 would block sterol binding at the CBM. To investigate this question in more detail, we first performed computational docking studies to identify residues in CRISP2 that are critical for the interaction with PSP94. […] Two of these three interacting residues, N97 and L98, are conserved in all three CAP family members tested here, CRISP2, CRISP3, and Pry1 (Fig. 4A). […]
MST experiments were performed to assess protein–protein, protein–lipid, and protein–calcium interactions using a Monolith NT.115 (Nanotemper Technologies). […] The dissociation constant Kd was obtained by plotting the normalized fluorescence (Fnorm) against the logarithm of ligand concentration. […]
Quadruple mutant cells lacking the acyl-CoA synthetases FAA1 and FAA4 and the yeast CAP family members PRY1 and PRY3 (faa1∆ faa4∆ pry1∆ pry3∆) expressing different combinations of plasmid-borne copies of PRY1, CRISP2, and or PSP94, or their respective empty vectors (pRS423 or pRS426) were cultivated overnight. The export of fatty acids into the culture medium was then quantified. […]

Work on `CC(C)CCC[C@@H](C)[C@H]1CC[C@H]2[C@@H]3CC=C4C[C@@H](OS(=O)(=O)O)CC[C@]4(C)[C@H]3CC[C@]12C` [cholesterol sulfate] yielded a Kd [1] of 3.8 ± 1.9 µM, a Kd [2] of 2.7 ± 2.3 µM and a Kd [3] of 3.1 ± 1.5 µM.
